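Protocol summary: plate cells (96-well), add compound at 5 concentrations, incubate 48 h, interpolate endpoints linearly. Abbreviation: GI50, concentration required for 50% inhibition of growth. Definition used: TGI = concentration required for complete inhibition of growth.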
Key:
Assay in all cases: NCI anticancer screen, dose series, 48 h
[1] = system: OVCAR-3 ovarian
[2] = system: UACC-257 melanoma
[3] = system: HL-60(TB) leukemia
[4] = system: U251 CNS
[5] = system: UACC-62 melanoma
[6] = system: SK-OV-3 ovarian
[7] = system: SF-539 CNS
[8] = system: SNB-19 CNS
[9] = system: NCI-H522 lung

Row | SMILES | TGI [1] | TGI [2] | TGI [3] | TGI [4] | TGI [5] | TGI [6] | TGI [7] | TGI [8] | TGI [9] | GI50 [1] | GI50 [2] | GI50 [4] | GI50 [5] | GI50 [6] | GI50 [7] | GI50 [8] | GI50 [9] | GI50 [3]
1 | OCC(O)COc1c(Cl)ccc(Cl)c1Cl (stereo not drawn) | > 100 µM | > 100 µM | > 100 µM | > 100 µM | > 100 µM | > 100 µM | > 100 µM | > 100 µM | > 100 µM | – | – | – | – | – | – | – | – | –
2 | Fc1ccc(F)c(C2SCc3nc4ccccc4n32)c1 (stereo not drawn) | > 100 µM | > 100 µM | 53.9 µM | > 100 µM | > 100 µM | > 100 µM | > 100 µM | > 100 µM | > 100 µM | – | – | – | – | – | – | – | – | –
3 | COc1ccc(/C=C/c2nc(=S)[nH][nH]2)cc1 | > 100 µM | > 100 µM | > 100 µM | > 100 µM | > 100 µM | – | > 100 µM | > 100 µM | > 100 µM | – | – | – | – | – | – | – | – | –
4 | N#CCC(=O)N/N=C1/C(=O)NC(=O)C(=O)C1c1nc2ccccc2s1 (stereo not drawn) | > 100 µM | > 100 µM | – | > 100 µM | > 100 µM | > 100 µM | > 100 µM | > 100 µM | > 100 µM | – | – | – | – | – | – | – | – | –
5 | COc1ccc(CCNCc2cccc(OC)c2OC)cc1OC | > 100 µM | > 100 µM | > 100 µM | – | > 100 µM | > 100 µM | – | > 100 µM | > 100 µM | – | – | – | – | – | – | – | – | –
6 | CC(C)CC(CNC(Cc1ccc(Cl)cc1)C(N)=O)NC(=O)C(Cc1cnc[nH]1)NC(=O)CNC(=O)C(NC(=O)C(C)NC(=O)C(Cc1c[nH]c2ccccc12)NC(=O)C(CCC(=O)O)NC(=O)C(N)Cc1ccccc1)C(C)C (stereo not drawn) | > 133 µM | > 133 µM | > 133 µM | > 133 µM | > 133 µM | > 133 µM | > 133 µM | > 133 µM | – | – | – | – | – | – | – | – | – | –
7 | CC(=O)OCC(OC(C)=O)C(OC(C)=O)C(OC(C)=O)C(=O)CNn1c(-c2ccccc2)nc2ccc(Br)cc2c1=O (stereo not drawn) | > 100 µM | > 100 µM | > 100 µM | > 100 µM | > 100 µM | > 100 µM | > 100 µM | > 100 µM | > 100 µM | – | – | – | – | – | – | – | – | –
8 | O=C(CCc1ccccc1)On1nnc2ccccc2c1=O | > 100 µM | > 100 µM | > 100 µM | > 100 µM | > 100 µM | > 100 µM | > 100 µM | > 100 µM | > 100 µM | – | – | – | – | – | – | – | – | –
9 | O=C(CCC(=O)N/N=C/c1ccccc1O)N/N=C/c1ccccc1O | > 100 µM | > 100 µM | – | > 100 µM | > 100 µM | 37.2 µM | – | > 100 µM | > 100 µM | – | – | – | – | – | – | – | – | –
10 | O=C1OC(c2ccccc2)=N/C1=C\c1c(O)cc(O)cc1O | > 100 µM | > 100 µM | – | > 100 µM | > 100 µM | > 100 µM | > 100 µM | > 100 µM | > 100 µM | – | – | – | – | – | – | – | – | –
11 | COc1cc(/C=C2\CC3C4CC=C5C[C@@H](N6CCCC6)CC[C@]5(C)C4CC[C@]3(C)[C@H]2OC(C)=O)ccc1OCCN1CCCCC1 (stereo partly drawn) | 3.34 µM | 3.91 µM | – | 3.02 µM | 2.81 µM | 4.39 µM | 3.16 µM | 5.83 µM | 3.24 µM | 1.64 µM | 1.93 µM | 1.55 µM | 1.44 µM | 2.15 µM | 1.66 µM | 2.84 µM | 1.67 µM | –
12 | COc1cc(-c2nc(SCC(=O)Nc3ccc(C(C)=O)cc3)[nH]c(=O)c2C#N)cc(OC)c1OC | > 100 µM | > 100 µM | > 100 µM | > 100 µM | > 100 µM | > 100 µM | > 100 µM | > 100 µM | – | 34 µM | 97.4 µM | 55.6 µM | 28 µM | 38.6 µM | 29.6 µM | 64 µM | – | 35 µM
13 | Cc1cccc2c1Oc1cc(Cl)ccc1C2NC(=O)CN(C)C (stereo not drawn) | – | 89.5 µM | 45.3 µM | – | 70 µM | > 100 µM | > 100 µM | > 100 µM | – | – | – | – | – | – | – | – | – | –
14 | CCc1ccccc1-n1c2nc(=O)n(C)c(=O)c-2nc2ccccc21 | 6.79 µM | 18.6 µM | – | 32.8 µM | 5.15 µM | > 100 µM | 27.7 µM | 23.5 µM | 27.3 µM | – | – | – | – | – | – | – | – | –
15 | O=C(N/C(=C\c1ccc(Br)cc1)c1nc2ccccc2s1)c1ccccc1 | > 100 µM | > 100 µM | – | > 100 µM | > 100 µM | > 100 µM | > 100 µM | > 100 µM | > 100 µM | – | – | – | – | – | – | – | – | –
16 | CCc1ccc(/C(C)=N/NC(N)=S)cc1 | > 100 µM | – | – | > 100 µM | > 100 µM | > 100 µM | > 100 µM | > 100 µM | – | – | – | – | – | – | – | – | – | –
17 | Cc1ccc(S(=O)(=O)NC(CCC(=O)Nc2ccccc2)C(=O)Nc2ccccc2)cc1 (stereo not drawn) | 1.35 µM | 2.36 µM | 3.08 µM | 1.49 µM | 1.12 µM | 2.39 µM | 0.89 µM | – | 1.14 µM | 0.419 µM | 0.464 µM | 0.326 µM | 0.172 µM | 0.47 µM | 0.283 µM | – | 0.276 µM | 0.55 µM
